Reference: patent US20250084079A1, “COMPOSITIONS AND METHODS FOR INHIBITION OF RAS” (TheRas, Inc., priority 2022, published 2025)
Like-named read-outs stand apart in the source and are kept apart here.

Assays:
[1] = molecular target: T1, Avi-KRAS G12D (1-169) GppNHp/RAF1 RBD-3xFLAG (52-151) (Homo sapiens, UniProt P01116, G12D); assay: RAS-effector PPI HTRF disruption assay, Raf1-GppNHp-KRAS G12D; format: biochemical
T1 construct: 100 nM Avi-KRAS G12D (1-169) GppNHp
How it was run: (§1)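 Compounds titrated 100-0.02 μM (3-fold, 10 points) against GppNHp-loaded KRAS-effector complexes: PI3KCA with G12D/Q25A at 375 nM; RAF1 RBD with G12D at 100 nM, G12V or WT at 50 nM. Two 1 h room-temperature incubations; HTRF signal normalised to DMSO as 100%, IC50 derived.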

[2] = molecular target: T2, Avi-KRAS G12D/Q25A (1-169) GppNHp/3xFLAG-PI3KCA (157-299) (Homo sapiens, UniProt P01116, G12D/Q25A); assay: RAS-effector PPI HTRF disruption assay, PI3KCA-GppNHp-KRAS G12D/Q25A; format: biochemical
T2 construct: 375 nM Avi-KRAS G12D/Q25A (1-169) GppNHp
Method: A protein:protein interaction (PPI) Homogeneous Time Resolved Fluorescence (HTRF) assay was used to determine the effectiveness of compounds of the present disclosure in disrupting KRAS protein and effector (RAF1 or PIK3 CA) binding.
The HTRF assay used the following reagents and proteins: (i) 375 nM Avi-KRAS G12D/Q25A (1-169) GppNHp/3×FLAG-PI3KCA (157-299); (ii) 100 nM Avi-KRAS G12D (1-169) GppNHp/RAF1 RBD-3×FLAG (52-151); (iii) 50 nM Avi-KRAS G12V (1-169) GppNHp/RAF1 RBD-3×FLAG (52-151); (iv) 50 nM Avi-KRAS WT (1-169) GppNHp/RAF1 RBD-3×FLAG (52-151); and (v) 35 nM Avi-PI3K RBD CA-3×FLAG; Assay Buffer: 50 mM Tris pH 7.5, 100 mM NaCl, 5 mM MgCl2, 0.1% BSA, 0.01% Tween, 1 mM TCEP, 10% DMSO; Bead Buffer: 50 mM Tris pH 7.5, 0.01% Tween 20; Assay volume: 20 μL (384 well plate-low volume format); and Compound titration: 100-0.02 μM, 3× dilution series.
The HTRF assay employed the following protocol:
Compounds were dispensed in assay plate (384-well, Grenier Bione #784075) using Echo (model 555) with dose response settings: 200 nL final volume, titration from 100 μM as a 10-point dilution series. Protein mix was prepared in assay buffer, and dispensed on plates, 10 μL per well, then incubated for 1 h at room temperature, with 700 rpm shaking. Reagents mix was prepared and dispensed on plates, 10 μL per well, then incubated for 1 h at room temperature, with 700 rpm shaking.
Plates were analyzed on an Envision plate reader using the following setting: Excitation 320 nm, Bandwidth […]; Emission 615 nm, Bandwidth […], Gain 100%, Flashes 100, Lag 60 μs. Data was reported as percentage of activity, with DMSO as 100%. Data was plotted and analyzed using Prism 8. The SPR Kd, biochemical Raf1-KRAS G12D/G12V/WT-GppNHP and PI3KCA-KRAS G12D/Q25A-GppNHp disruption assay IC50 of selected compounds described herein are shown in Table 4.

[3] = molecular target: T3, Avi-KRAS G12V (1-169) GppNHp/RAF1 RBD-3xFLAG (52-151) (Homo sapiens, UniProt P01116, G12V); assay: RAS-effector PPI HTRF disruption assay, Raf1-GppNHp-KRAS G12V; format: biochemical
T3 construct: 50 nM Avi-KRAS G12V (1-169) GppNHp
How it was run: as §1

[4] = molecular target: T4, Avi-KRAS WT (1-169) GppNHp/RAF1 RBD-3xFLAG (52-151) (Homo sapiens, UniProt P01116); assay: RAS-effector PPI HTRF disruption assay, Raf1-GppNHp-KRAS WT; format: biochemical
T4 construct: 50 nM Avi-KRAS WT (1-169) GppNHp
How it was run: as §1

[5] = system: pERK in GP2d cells (KRAS G12D); assay: Cell-based pERK HTRF assay in GP2d cell; details: 60 min incubation
How it was run: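 Phospho-ERK was measured by HTRF in lysates of KRAS G12D GP2d cells after 60 min of compound exposure. Nine concentrations were tested, half-log apart from a 1 μM top, with 0.25% DMSO throughout. Cells had been plated the previous day in DMEM with 10% FBS, and the detection antibodies were incubated 4–24 h at room temperature before reading.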

T4 sequence (P01116 1-169 isoform P01116-2): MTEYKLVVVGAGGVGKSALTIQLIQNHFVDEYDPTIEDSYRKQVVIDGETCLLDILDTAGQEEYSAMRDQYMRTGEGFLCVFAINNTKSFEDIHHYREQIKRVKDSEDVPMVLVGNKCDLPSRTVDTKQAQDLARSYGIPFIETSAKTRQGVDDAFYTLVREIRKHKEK
T3 sequence (P01116 1-169 isoform P01116-2 G12V): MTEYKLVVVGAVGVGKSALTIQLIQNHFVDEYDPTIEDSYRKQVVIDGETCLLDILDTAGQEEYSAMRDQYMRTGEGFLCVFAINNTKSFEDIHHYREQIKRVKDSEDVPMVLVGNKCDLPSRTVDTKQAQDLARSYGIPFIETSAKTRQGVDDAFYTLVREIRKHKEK
T1 sequence (P01116 1-169 isoform P01116-2 G12D): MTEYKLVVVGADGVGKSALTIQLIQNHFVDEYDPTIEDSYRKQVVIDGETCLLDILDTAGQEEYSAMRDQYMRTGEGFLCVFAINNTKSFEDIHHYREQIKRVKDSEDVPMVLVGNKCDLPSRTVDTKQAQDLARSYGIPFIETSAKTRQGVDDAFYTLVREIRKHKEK
T2 sequence (P01116 1-169 isoform P01116-2 G12D/Q25A): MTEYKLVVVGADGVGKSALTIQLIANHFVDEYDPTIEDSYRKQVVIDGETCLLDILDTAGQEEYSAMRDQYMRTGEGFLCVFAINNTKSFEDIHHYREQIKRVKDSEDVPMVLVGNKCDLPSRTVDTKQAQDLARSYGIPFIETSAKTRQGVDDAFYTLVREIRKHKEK

| Compound | IC50 [1] | IC50 [2] | IC50 [3] | IC50 [4] | IC50 ([5]; GP2d, 1 h) | IC50 ([5]; read-out: pERK-Gp2D-1 hr) |
| --- | --- | --- | --- | --- | --- | --- |
| CC1(C)NCCC1Oc1nc(OC[C@@]23CCCN2C[C@H](F)C3)nc2c(F)c(-c3ccc(F)c4sc(N)c(C#N)c34)c(C(F)(F)F)cc12 (some centres unmarked) [Compound 34] | 0.1 to 1 µM | 0.1 to 1 µM | 0.1 to 1 µM | 0.1 to 1 µM | ≤ 0.1 µM |  |
| C[C@H]1NCC[C@H]1Oc1nc(OC[C@@]23CCCN2C[C@H](F)C3)nc2cc(-c3ccc(F)c4sc(N)nc34)c(C(F)(F)F)cc12 [Compound 35] | 0.1 to 1 µM | > 10 µM | 1 to 10 µM | 1 to 10 µM | 0.1 to 1 µM |  |
| Nc1nc2c(-c3c(C(F)(F)F)cc4c(OC5CC6CC[C@H]5N6)nc(OCC56CCCN5CCC6)nc4c3F)ccc(F)c2s1 (some centres unmarked) [Compound 36] | 0.1 to 1 µM | > 10 µM | > 10 µM | 1 to 10 µM | > 1 µM |  |
| N#Cc1c(N)sc2c(F)ccc(-c3cc4nc(OC[C@@]56CCCN5C[C@H](F)C6)nc(O[C@H]5CNC[C@@H]5F)c4cc3C(F)(F)F)c12 [Compound 46] | 0.1 to 1 µM | > 10 µM | > 10 µM | > 10 µM | > 1 µM |  |
| C[C@H]1NCC[C@H]1Oc1nc(OC[C@@]23CCCN2C[C@H](F)C3)nc2c(F)c(-c3ccc(F)c4sc(N)c(C#N)c34)c(C(F)(F)F)cc12 [Compound 47, 2-amino-7-fluoro-4-(8-fluoro-2-(((2R,7aS)-2-fluorotetrahydro-1H-pyrrolizin-7a(5H)-yl)methoxy)-4-(((2R,3R)-2-methylpyrrolidin-3-yl)oxy)-6-(trifluoromethyl)quinazolin-7-yl)benzo[b]thiophene-3-carbonitrile] | ≤ 0.1 µM | > 10 µM | 0.1 to 1 µM | ≤ 0.1 µM | ≤ 0.1 µM |  |
| N#Cc1c(N)sc2c(F)ccc(-c3ccc4c(O[C@@H]5CCNC5)nc(OC[C@@]56CCCN5C[C@H](F)C6)nc4c3F)c12 [Compound 48] | 0.1 to 1 µM | 0.1 to 1 µM | > 10 µM | 1 to 10 µM | 0.1 to 1 µM |  |
| N#Cc1c(N)sc2c(F)ccc(-c3cc4nc(OC[C@@]56CCCN5C[C@H](F)C6)nc(O[C@H]5CNC[C@H]5F)c4cc3C(F)(F)F)c12 [Compound 49] | 0.1 to 1 µM | 0.1 to 1 µM | 1 to 10 µM | 1 to 10 µM | ≤ 0.1 µM |  |
| N#Cc1c(N)sc2c(F)ccc(-c3c(C(F)(F)F)cc4c(O[C@@H]5CCN[C@@H]5CO)nc(OC[C@@]56CCCN5C[C@H](F)C6)nc4c3F)c12 [Compound 50] | 0.1 to 1 µM | 0.1 to 1 µM | 0.1 to 1 µM | 0.1 to 1 µM | ≤ 0.1 µM |  |
| N#Cc1c(N)sc2c(F)ccc(-c3ncc4c(O[C@H]5CNC[C@H]5F)nc(OC[C@@]56CCCN5C[C@H](F)C6)nc4c3F)c12 [Compound 51] | 1 to 10 µM | 1 to 10 µM | > 10 µM | > 10 µM | > 1 µM |  |
| Nc1nc2c(-c3c(C(F)(F)F)cc4c(O[C@H]5CN[C@H](CO)C5)nc(OCC56CCCN5C[C@H](F)C6)nc4c3F)ccc(F)c2s1 (some centres unmarked) [Compound 52] | 0.1 to 1 µM | 1 to 10 µM | > 10 µM | 1 to 10 µM | 0.1 to 1 µM |  |
| N#Cc1c(N)sc2c(F)ccc(-c3c(C(F)(F)F)cc4c(O[C@H]5CNC[C@@H]5F)nc(OC[C@@]56CCCN5C[C@H](F)C6)nc4c3F)c12 [Compound 53] | 0.1 to 1 µM | 0.1 to 1 µM | 1 to 10 µM | 0.1 to 1 µM | ≤ 0.1 µM |  |
| C[C@H]1C[C@H](Oc2nc(OC[C@@]34CCCN3C[C@H](F)C4)nc3c(F)c(-c4ccc(F)c5sc(N)c(C#N)c45)c(Cl)cc23)CN1 [Compound 54] | 0.1 to 1 µM | 0.1 to 1 µM | 1 to 10 µM | 0.1 to 1 µM |  | 0.1 to 1 µM |
| C[C@H]1C[C@H](Oc2nc(OC[C@@]34CCCN3C[C@H](F)C4)nc3c(F)c(-c4ccc(F)c5sc(N)c(C#N)c45)c(Cl)cc23)CN1 [Compound 55] | 1 to 10 µM | 1 to 10 µM | > 10 µM | 1 to 10 µM |  | > 1 µM |
| C[C@@H]1C[C@@H](Oc2nc(OC[C@@]34CCCN3C[C@H](F)C4)nc3c(F)c(-c4ccc(F)c5sc(N)c(C#N)c45)ccc23)CN1 [Compound 56] | 1 to 10 µM | 0.1 to 1 µM | > 10 µM | 1 to 10 µM | 0.1 to 1 µM |  |
| Nc1nc2c(-c3c(C(F)(F)F)cc4c(O[C@H]5CN[C@@H](CO)C5)nc(OCC56CCCN5C[C@H](F)C6)nc4c3F)ccc(F)c2s1 (some centres unmarked) [Compound 58] | 1 to 10 µM | 0.1 to 1 µM | > 10 µM | 1 to 10 µM | 0.1 to 1 µM |  |
| C[C@H]1NCC[C@@H]1Oc1nc(OC[C@@]23CCCN2C[C@H](F)C3)nc2c(F)c(-c3ccc(F)c4sc(N)c(C#N)c34)c(Cl)cc12 [Compound 59] | 0.1 to 1 µM | 0.1 to 1 µM | 0.1 to 1 µM | 0.1 to 1 µM | ≤ 0.1 µM |  |
| N#Cc1c(N)sc2c(F)ccc(-c3c(C(F)(F)F)cc4c(O[C@@H]5CCN[C@@H]5CF)nc(OC[C@@]56CCCN5C[C@H](F)C6)nc4c3F)c12 [Compound 62] | 0.1 to 1 µM | 1 to 10 µM | 1 to 10 µM | 0.1 to 1 µM | ≤ 0.1 µM |  |
| N#Cc1c(N)sc2c(F)ccc(-c3c(Cl)cc4c(O[C@@H]5CNC[C@@H]5F)nc(OC[C@@]56CCCN5C[C@H](F)C6)nc4c3F)c12 [Compound 63] | 0.1 to 1 µM | 1 to 10 µM | 1 to 10 µM | 1 to 10 µM | 0.1 to 1 µM |  |
| C[C@@H]1NCC[C@@H]1Oc1nc(OC[C@@]23CCCN2C[C@H](F)C3)nc2c(F)c(-c3ccc(F)c4sc(N)c(C#N)c34)c(Cl)cc12 [Compound 65] | 0.1 to 1 µM | 0.1 to 1 µM | 0.1 to 1 µM | 0.1 to 1 µM | ≤ 0.1 µM |  |
